The numbers were not newly measured in US11324962B2, “Magnetic field enhancement of chemotherapy for tumor treatment” (priority 2018, dated 2022), which cites them from elsewhere.

For this data set the following is noted: in vivo.

On to `O=C1[O][Pt]2([NH][C@@H]3CCCC[C@H]3[NH]2)[O]C1=O` [oxaliplatin], for which the biological half-life is 25 minutes.
